Columns and labels:
WT HIV-1 (IIIB) = test: microbe, parasite or virus in culture; assay type: cell-based; conditions: for EC50: Human immunodeficiency virus 1, IIIB, MT4, read-out: EC50 IIIB; for SI IIIB: ratio of CC50/EC50
HIV-2 strain (ROD) = test: Anti-HIV-2; assay type: cell-based; conditions: for EC50: Human immunodeficiency virus 2, MT4, read-out: EC50 ROD; for SI ROD: ratio of CC50/EC50
[1] = system: HIV-1 L100I mutant strain; test: microbe, parasite or virus in culture; assay type: cell-based; conditions: for SI L100I: CC50/EC50; for EC50: Human immunodeficiency virus 1, MT4, read-out: EC50 L100I; for RF L100I: ratio of EC50 (resistant viral strain)/EC50 (wild-type viral strain)
[2] = system: HIV-1 K103N mutant strain; test: microbe, parasite or virus in culture; assay type: cell-based; conditions: for SI K103N: CC50/EC50; for EC50: Human immunodeficiency virus 1, MT4, read-out: EC50 K103N; for RF K103N: ratio of EC50 (resistant viral strain)/EC50 (wild-type viral strain)
[3] = system: HIV-1 Y181C mutant strain; test: microbe, parasite or virus in culture; assay type: cell-based; conditions: for SI Y181C: CC50/EC50; for EC50: Human immunodeficiency virus 1, MT4, read-out: EC50 Y181C; for RF Y181C: ratio of EC50 (resistant viral strain)/EC50 (wild-type viral strain)
[4] = system: HIV-1 Y188L mutant strain; test: microbe, parasite or virus in culture; assay type: cell-based; conditions: for SI Y188L: CC50/EC50; for EC50: Human immunodeficiency virus 1, MT4, read-out: EC50 Y188L; for RF Y188L: ratio of EC50 (resistant viral strain)/EC50 (wild-type viral strain)
[5] = system: HIV-1 E138K mutant strain; test: microbe, parasite or virus in culture; assay type: cell-based; conditions: for SI E138K: CC50/EC50; for EC50: Human immunodeficiency virus 1, MT4, read-out: EC50 E138K; for RF E138K: ratio of EC50 (resistant viral strain)/EC50 (wild-type viral strain)
[6] = system: HIV-1 F227L + V106A double-mutant strain; test: microbe, parasite or virus in culture; assay type: cell-based; conditions: for SI F227L + V106A: CC50/EC50; for EC50: Human immunodeficiency virus 1, MT4, read-out: EC50 F227L + V106A; for RF F227L + V106A: ratio of EC50 (resistant viral strain)/EC50 (wild-type viral strain)
[7] = system: HIV-1 RES056 (K103N + Y181C) double-mutant strain; test: microbe, parasite or virus in culture; assay type: cell-based; conditions: for SI RES056: CC50/EC50; for EC50: Human immunodeficiency virus 1, MT4, read-out: EC50 RES056; for RF RES056: ratio of EC50 (resistant viral strain)/EC50 (wild-type viral strain)
WT HIV-1 RT = WT HIV-1 RT (Human immunodeficiency virus type 1 group M subtype B, UniProt P03366); test: Recombinant HIV-1 RT inhibitory assay; assay type: biochemical
[8] = Cytotoxicity in mock-infected MT-4 cell cultures, MTT method; conditions: human, mock-infected MT-4 cells

## Cc1cc(-c2cccc(C#N)c2)cc(C)c1Oc1nc(NC2CCN(Cc3ccc(S(N)(=O)=O)cc3)CC2)nc2ccsc12 [Compound 27, 4-((4-((4-((3′-Cyano-3,5-dimethyl-[1,1′-biphenyl]-4-yl)oxy)thieno[3,2-d]pyrimidin-2-yl)amino)piperidin-1-yl)methyl)benzenesulfonamide]
WT HIV-1 (IIIB)
  EC50: 13.3 ± 2.6 nM
  SI IIIB: 1054
HIV-2 strain (ROD)
  EC50: 4920 ± 2250 nM
  SI ROD: 3
[1]
  SI L100I: 569
  EC50: 24.6 ± 4.97 nM
  RF L100I: 1.9
[2]
  SI K103N: 1639
  EC50: 8.56 ± 1.69 nM
  RF K103N: 0.6
[3]
  SI Y181C: 432
  EC50: 32.4 ± 4.07 nM
  RF Y181C: 2.4
[4]
  SI Y188L: 256
  EC50: 54.7 ± 2.26 nM
  RF Y188L: 4.1
[5]
  SI E138K: 402
  EC50: 34.8 ± 9.28 nM
  RF E138K: 2.6
[6]
  SI F227L + V106A: 285
  EC50: 49.2 ± 8.26 nM
  RF F227L + V106A: 3.7
[7]
  SI RES056: 40
  EC50: 347 ± 75.9 nM
  RF RES056: 26.1
WT HIV-1 RT
  IC50: 207 ± 6 nM
[8]
  CC50 at 5 days: 14000 ± 8280 nM

## Cc1cc(-c2cccc(C#N)c2)cc(C)c1Oc1nc(NC2CCN(Cc3ccc(C(N)=O)cc3)CC2)nc2ccsc12 [Compound 28, 4-((4-((4-((3′-Cyano-3,5-dimethyl-[1,1′-biphenyl]-4-yl)oxy)thieno[3,2-d]pyrimidin-2-yl)amino)piperidin-1-yl)methyl)benzamide]
WT HIV-1 (IIIB)
  EC50: 23.4 ± 16.9 nM
  SI IIIB: 178
HIV-2 strain (ROD)
  EC50: > 4170 nM
  SI ROD: <1
[1]
  SI L100I: 83
  EC50: 50.2 ± 10.3 nM
  RF L100I: 2.1
[2]
  SI K103N: 208
  EC50: 20 ± 1.2 nM
  RF K103N: 0.9
[3]
  SI Y181C: 81
  EC50: 51.6 ± 4.32 nM
  RF Y181C: 2.2
[4]
  SI Y188L: 57
  EC50: 73.4 ± 5.16 nM
  RF Y188L: 3.1
[5]
  SI E138K: 99
  EC50: 41.9 ± 4.56 nM
  RF E138K: 1.8
[6]
  SI F227L + V106A: 26
  EC50: 157 ± 6.6 nM
  RF F227L + V106A: 6.7
[7]
  SI RES056: 10
  EC50: 402 ± 41.9 nM
  RF RES056: 17.2
WT HIV-1 RT
  IC50: 202 ± 20 nM
[8]
  CC50 at 5 days: 4160 ± 1750 nM

## Cc1cc(-c2ccc(N(C)C)cc2)cc(C)c1Oc1nc(NC2CCN(Cc3ccc(S(N)(=O)=O)cc3)CC2)nc2ccsc12 [Compound 29, 4-((4-((4-((4'-(Dimethylamino)-3,5-dimethyl-[1,1′-biphenyl]-4-yl)oxy)thieno[3,2-d]pyrimidin-2-yl)amino)piperidin-1-yl)methyl)benzenesulfonamide]
WT HIV-1 (IIIB)
  EC50: 79.2 ± 48.7 nM
  SI IIIB: 232
HIV-2 strain (ROD)
  EC50: > 18400 nM
  SI ROD: <1
[1]
  SI L100I: 74
  EC50: 247 ± 4.5 nM
  RF L100I: 3.1
[2]
  SI K103N: 189
  EC50: 97.2 ± 3.07 nM
  RF K103N: 1.2
[3]
  SI Y181C: 71
  EC50: 260 ± 30.2 nM
  RF Y181C: 3.3
[4]
  SI Y188L: 68
  EC50: 269 ± 30 nM
  RF Y188L: 3.4
[5]
  SI E138K: 100
  EC50: 183 ± 19.4 nM
  RF E138K: 2.3
[6]
  SI F227L + V106A: 131
  EC50: 140 ± 1.31 nM
  RF F227L + V106A: 1.8
[7]
  SI RES056: 11
  EC50: 1680 ± 388 nM
  RF RES056: 21.2
WT HIV-1 RT
  IC50: 477 ± 9 nM
[8]
  CC50 at 5 days: 18300 ± 4500 nM
